The values that follow come from patent publication US4332895A, “Thermal stable beta-galactosidase” (National Research Development Corp., priority 1978, dated 1982).

Like-named read-outs stand apart in the source and are kept apart here.

Holding throughout (assay type): biochemical
Experiment [1] has as its system β-galactosidase of Bacillus stearothermophilus HRI strains (HRI enzyme), purified enzyme. Nature of the experiment: β-galactosidase assay, purified enzyme, ONPG or lactose as substrate. The protocol:
The assay used is based on that of Lederberg (J. Bacteriol. 1950, 60, 381), using an assay mixture comprising 2.8 ml of 50 mM sodium phosphate, pH 7.0, and 0.1 ml of 68 mM ONPG. 0.1 ml aliquots of both purified enzyme and toluene-treated cell suspension, and 10 mg. amounts in 2.9 ml of buffer of freeze dried immobilised whole cell preparation are used for the assays. Assays are carried out at incubation temperature of 65° C. and after the appropriate time interval the reactions are halted by addition of 3 ml aliquots of 0.5 M sodium bicarbonate to each reaction mixture and immediate cooling in an ice bath. The absorbance of the resultant solutions is measured at 410 nm using a Perkin-Elmer 124 double beam spectrophotometer. In the case of whole cell suspensions the assay tubes are centrifuged and in the case of the immobilised cells the mixtures are filtered, to remove cells and polyacrylamide gel respectively prior to measurement of the absorbance.
The assay mixture used comprises 0.9 ml of 50 mM sodium phosphate buffer, pH 7.0, 4 ml of lactose (4 g in 100 ml of phosphate buffer), to which 0.1 ml of purified enzyme or cell suspension or 10 mg of gel entrapped cell preparation is added. The reaction mixtures are incubated for 15 minutes at 65° C., reactions are halted by addition of 4.2% perchloric acid and the solutions are centrifuged. Aliquots of the supernatant solutions are assayed for glucose or galactose.
Glucose is estimated by a modification of the method of Trinder (Ann. Clin. Biochem. 1969 6, 24). 1 ml aliquots of the supernatant solutions are assayed by addition to a mixture comprising 1 ml of 0.2% phenol and 3 ml of colour reagent (75 ml 4% (w/v) disodium hydrogen orthophosphate, 225 ml of water, 6 mg of glucose oxidase (Boehringer Corp. Ltd.), 0.15 ml peroxidase (Boehringer Corp. Ltd.), 100 mg of 4-aminophenazone and 300 mg of sodium azide) followed by incubation at 37° C. for 10 minutes and absorbance measurement at 515 nm.
Galactose is estimated as follows: a sample (e.g. 0.2 ml) containing not more than 200 μg/ml of galactose is mixed with 2.5 ml of buffer (4.8 g Na2 HPO4, 0.86g NaH2 PO4 and 0.2 g MgSO4 7H2 O per 200 ml of H2 O) and 0.1 ml of 10 mg/ml of NAD solution and the absorbance is measured at 340 nm. 0.02 ml of galactose dehydrogenase (Boehringer Corp. Ltd.) is added, the solutions incubated at 37° C. for 30 minutes and the absorbance again measured at 340 nm.

Experiment [2] concerns β-galactosidase of Bacillus stearothermophilus HRI strains, entrapped whole cell preparation. Nature of the experiment: β-galactosidase assay, polyacrylamide gel entrapped (immobilised) whole cell preparation, ONPG or lactose as substrate. The following applies: for Km: entrapped whole cell preparation, pH 7.0, 65° C. The protocol: Washed cells which have been toluene treated, as above, are resuspended in an equal volume of 50 mM sodium phosphate buffer, pH 7.0, containing acrylamide (200 g/l) and NN'-methylenebisacrylamide (20 g/l). Ammonium persulphate (2 […]) are added to this suspension which is then allowed to gel, and the gel is disrupted by forcing through a wire mesh, as described by Hjerten (Arch. Biochem. Biophys. […] The disrupted gel is freeze-dried to provide a stock of enzymatically active immobilised whole cell preparation. The assay used is based on that of Lederberg (J. […] Assays are carried out at incubation temperature of 65° C. and after the appropriate time interval the reactions are halted by addition of 3 ml aliquots of 0.5 M sodium bicarbonate to each reaction mixture and immediate cooling in an ice bath. The absorbance of the resultant solutions is measured at 410 nm using a Perkin-Elmer 124 double beam spectrophotometer. In the case of whole cell suspensions the assay tubes are centrifuged and in the case of the immobilised cells the mixtures are filtered, to remove cells and polyacrylamide gel respectively prior to measurement of the absorbance. […] The reaction mixtures are incubated for 15 minutes at 65° C., reactions are halted by addition of 4.2% perchloric acid and the solutions are centrifuged. Aliquots of the supernatant solutions are assayed for glucose or galactose. Glucose is estimated by a modification of the method of Trinder (Ann. Clin. […] Ltd.), 0.15 ml peroxidase (Boehringer Corp. Ltd.), 100 mg of 4-aminophenazone and 300 mg of sodium azide) followed by incubation at 37° C. for 10 minutes and absorbance measurement at 515 nm. […] Ltd.) is added, the solutions incubated at 37° C. for 30 minutes and the absorbance again measured at 340 nm.

In experiment [3] the test system is β-galactosidase of Bacillus stearothermophilus HRI strains, whole cell suspension. Nature of the experiment: β-galactosidase assay, toluene-treated whole cell suspension, ONPG or lactose as substrate. The note with it: for Km: whole cell suspension, pH 7.0, 65° C. The protocol: The cells are shaken at room temperature for about 5 minutes, and then harvested by centrifugation at 6000 g for 20 minutes in an MSE "Hi Spin 21" centrifuge prior to washing with buffer. […] The relation of Harris and Kornberg (Proc. Roy. Soc. Lond. B. 1972, 182, 159) is used to determine the cell density, 0.33 mg. dry wt. of B. stearothermophilus corresponding to an absorbance of 1.0 at 680 n.m. The assay used is based on that of Lederberg (J. […] Assays are carried out at incubation temperature of 65° C. and after the appropriate time interval the reactions are halted by addition of 3 ml aliquots of 0.5 M sodium bicarbonate to each reaction mixture and immediate cooling in an ice bath. The absorbance of the resultant solutions is measured at 410 nm using a Perkin-Elmer 124 double beam spectrophotometer. In the case of whole cell suspensions the assay tubes are centrifuged and in the case of the immobilised cells the mixtures are filtered, to remove cells and polyacrylamide gel respectively prior to measurement of the absorbance. […] The reaction mixtures are incubated for 15 minutes at 65° C., reactions are halted by addition of 4.2% perchloric acid and the solutions are centrifuged. Aliquots of the supernatant solutions are assayed for glucose or galactose. Glucose is estimated by a modification of the method of Trinder (Ann. Clin. […] Ltd.), 0.15 ml peroxidase (Boehringer Corp. Ltd.), 100 mg of 4-aminophenazone and 300 mg of sodium azide) followed by incubation at 37° C. for 10 minutes and absorbance measurement at 515 nm. […] Ltd.) is added, the solutions incubated at 37° C. for 30 minutes and the absorbance again measured at 340 nm.

[4] abbreviates: read-out: Michaelis constant (Km) with ONPG as substrate.
The mark [5] stands for this setting: read-out: Km with lactose as substrate.

Turning to `N[C@@H](CS)C(=O)O` [Cysteine, cysteine], the “% Activity” value in experiment [1] (addition at 10 mM final, ONPG as substrate, purified enzyme, no addition = 100) worked out at 98.1%; in experiment [2] (addition at 10 mM final, ONPG as substrate, immobilised whole cells, no addition = 100), 109.4%; in experiment [3] (addition at 10 mM final, ONPG as substrate, whole cells, no addition = 100), 103.7%.

As to `O=[N+]([O-])c1ccccc1O[C@@H]1O[C@H](CO)[C@H](O)[C@H](O)[C@H]1O` [ONPG, orthonitrophenyl-β-D-galactopyranoside, reference compound], the Km (as a rule, the substrate concentration at which the rate is half of its maximum) is 430 µM in experiment [1] (HRI enzyme, measured at 65° C., read-out: Michaelis constant (Km) for ONPG); 430 µM in experiment [1] (purified enzyme, pH 7.0, 65° C., read-out: Michaelis constant (Km) with ONPG as substrate); 260 µM in experiment [2] (setting [4]); 380 µM in experiment [3] (setting [4]).

As for `OC[C@H]1O[C@@H](O[C@H]2[C@H](O)[C@@H](O)C(O)O[C@@H]2CO)[C@H](O)[C@@H](O)[C@H]1O` (some centres unmarked) [lactose], the Km in experiment [1] (HRI enzyme, measured at 65° C., read-out: Michaelis constant (Km) for lactose) turned out to be 2100 µM; in experiment [1] (purified enzyme extract, pH 7.0, 65° C., read-out: Km with lactose as substrate) it was 2060 µM; in experiment [2] (setting [5]) it was 9520 µM; in experiment [3] (setting [5]), 11800 µM.
